Assays:
[1] = system: normal NK cells expanded with K562-aAPC; test: percent inhibition of viability; higher = more inhibition; conditions: 72 h, IL-2 2.5 ng/mL
Description: (§1)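 Drug sensitivity and resistance testing on K562-aAPC-expanded normal NK cells: 5 concentrations (10-fold steps over a 10,000-fold range), 72 h at 37 °C, viability by CellTiter-Glo normalised to DMSO and benzethonium chloride controls; DSS from the fitted curve.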

[2] = system: DERL-7 (IL-2 2.5 ng/mL); test: as above; conditions: 72 h
[3] = system: IMC-1 (IL-2 20 ng/mL); test: as above; conditions: 72 h
[4] = system: KAI3 (IL-2 2.5 ng/mL); test: as above; conditions: 72 h
[5] = system: KHYG-1 (IL-2 2.5 ng/mL); test: as above; conditions: 72 h
[6] = system: NK-92 (IL-2 2.5 ng/mL); test: as above; conditions: 72 h
[7] = system: NK-YS (IL-2 2.5 ng/mL); test: as above; conditions: 72 h
[8] = system: NKL (IL-2 2.5 ng/mL); test: as above; conditions: 72 h
[9] = system: SNK-6 (IL-2 2.5 ng/mL); test: as above; conditions: 72 h
[10] = system: YT (IL-2 2.5 ng/mL); test: as above; conditions: 72 h
[11] = system: normal primary NK cells, pool 1 (3 donors) (IL-2 2.5 ng/mL); test: as above; conditions: 72 h
[12] = system: normal primary NK cells, pool 1 (3 donors), resting (IL-2 0 ng/mL); test: as above; conditions: 72 h
[13] = system: normal primary NK cells, pool 2 (3 donors) (IL-2 2.5 ng/mL); test: as above; conditions: 72 h
[14] = system: normal primary NK cells, pool 3 (3 donors) (IL-2 2.5 ng/mL); test: as above; conditions: 72 h
[15] = system: normal NK cells expanded with K562-aAPC; test: drug sensitivity score (DSS) (DSS units); higher = more sensitive; extreme values may be limits of the assay; conditions: 72 h; IL-2 2.5 ng/mL
Description: as §1

[16] = system: DERL-7 (IL-2 2.5 ng/mL); test: as above; conditions: 72 h
[17] = system: IMC-1 (IL-2 20 ng/mL); test: as above; conditions: 72 h
[18] = system: KAI3 (IL-2 2.5 ng/mL); test: as above; conditions: 72 h
[19] = system: KHYG-1 (IL-2 2.5 ng/mL); test: as above; conditions: 72 h
[20] = system: NK-92 (IL-2 2.5 ng/mL); test: as above; conditions: 72 h
[21] = system: NK-YS (IL-2 2.5 ng/mL); test: as above; conditions: 72 h
[22] = system: NKL (IL-2 2.5 ng/mL); test: as above; conditions: 72 h
[23] = system: SNK-6 (IL-2 2.5 ng/mL); test: as above; conditions: 72 h
[24] = system: YT (IL-2 2.5 ng/mL); test: as above; conditions: 72 h
[25] = system: normal primary NK cells, pool 1 (3 donors) (IL-2 2.5 ng/mL); test: as above; conditions: 72 h
[26] = system: normal primary NK cells, pool 1 (3 donors), resting (IL-2 0 ng/mL); test: as above; conditions: 72 h
[27] = system: normal primary NK cells, pool 2 (3 donors) (IL-2 2.5 ng/mL); test: as above; conditions: 72 h
[28] = system: normal primary NK cells, pool 3 (3 donors) (IL-2 2.5 ng/mL); test: as above; conditions: 72 h

Cc1cc(C)c(/C=C2\C(=O)Nc3ccccc32)[nH]1 [Semaxanib] (max concentration tested 10000 nM)
percent inhibition of viability [%]
Conditions	1 nM	10 nM	100 nM	1000 nM	10000 nM
[1]	-3.94	-4.89	-0.87	-2.28	-6.44
[2]	-12.8	-10.6	-9.72	-14.2	-12.3
[3]	-3.23	1.84	-5.66	-0.69	-8.53
[4]	-2.48	-0.88	2.8	17.6	4.62
[5]	-1.36	0.11	0.12	6.34	1.2
[6]	-9.95	-0.12	2.69	-5.85	-9.23
[7]	-0.44	2.71	2.82	11.1	7.36
[8]	-13.9	-12.4	-11.4	-6.8	-21.5
[9]	11.5	16.6	-2.4	-25	-71.7
[10]	1.76	-2.52	0.26	5.87	-1.2
[11]	-10.6	-9.74	-0.67	-9.25	-0.4
[12]	-26.7	-24.9	-16.6	-29.6	-4.81
[13]	-8.9	-5	-12.5	-15.6	0.7
[14]	-10.1	-7.93	-13.2	-15.4	-11

Conditions	drug sensitivity score
[15]	0
[16]	0
[17]	0
[18]	0.08
[19]	0
[20]	0
[21]	0.03
[22]	0
[23]	0
[24]	0
[25]	0
[26]	0
[27]	0
[28]	0

O=C(O)CCCCC(CCSCc1ccccc1)SCc1ccccc1 (stereo not given) [CPI-613] (max concentration tested 10000 nM)
percent inhibition of viability [%]
Conditions	1 nM	10 nM	100 nM	1000 nM	10000 nM
[1]	-7.1	-6.01	-4.94	-0.06	8.33
[2]	0.05	-0.43	-0.74	-7.69	0.16
[3]	-2.98	-1.62	-2.71	-2.84	9.03
[4]	2.88	-5.51	1.38	3.07	13.6
[5]	-0.71	-6.53	-1.09	2.22	14.3
[6]	-12.9	-8.45	-13	17.1	13.7
[7]	-0.06	-3.64	-3.63	4.79	12.5
[8]	-9.11	-4.72	-5.85	9.97	-1.95
[9]	2.68	9.26	7.02	3.27	15.4
[10]	-4.82	-6.21	-4.86	4.79	13.6
[11]	-0.75	13.6	2.91	3.14	0.88
[12]	-1.85	9.03	13.2	15.7	14.9
[13]	-4.63	4.64	5.89	2.06	9.6
[14]	-7.27	-0.78	1.21	3.31	2.34

Conditions	drug sensitivity score
[15]	0
[16]	0
[17]	0
[18]	0.36
[19]	0.38
[20]	1.68
[21]	0.31
[22]	0
[23]	0.07
[24]	0.45
[25]	0
[26]	3.6
[27]	0
[28]	0

C[C@]1(O)C[C@@H](c2nc(-c3ccc4ccc(-c5ccccc5)nc4c3)c3c(N)nccn32)C1 [Linsitinib] (max concentration tested 10000 nM)
percent inhibition of viability [%]
Conditions	1 nM	10 nM	100 nM	1000 nM	10000 nM
[1]	-3.84	-4.8	-1.86	-1.74	2.14
[2]	-5.4	6.82	-0.65	-2.2	7.81
[3]	-3.5	-2.97	-5.08	-2.76	-3.58
[4]	6.27	-1.21	-4.49	-3.92	-0.2
[5]	-4.45	-3.38	-4.33	0.38	8.9
[6]	2.33	5.73	13	14.5	29.1
[7]	-6.48	-5.34	-2.18	3.9	7.93
[8]	-9.46	-15.4	-8.54	-9.73	12.4
[9]	5.21	-12.6	-15.2	-16.7	-11
[10]	1.95	2.48	2.32	5.99	17.4
[11]	-5.96	-9.98	-7.82	-7.33	27.3
[12]	-20.4	-14.2	17.7	8.71	42.2
[13]	-2.53	1.1	-5.12	3.42	27.6
[14]	-0.78	1.11	5.04	-1.16	15.8

Conditions	drug sensitivity score
[15]	0
[16]	0
[17]	0
[18]	0
[19]	0
[20]	3.33
[21]	0
[22]	0.01
[23]	0
[24]	0.72
[25]	0.79
[26]	3.19
[27]	1.67
[28]	0.23

CS(=O)(=O)c1ccc(C(=O)Nc2ccc(Cl)c(-c3ccccn3)c2)c(Cl)c1 [Vismodegib] (max concentration tested 10000 nM)
percent inhibition of viability [%]
Conditions	1 nM	10 nM	100 nM	1000 nM	10000 nM
[1]	-6.55	-2.58	-4.57	6.27	3.14
[2]	5.54	5.58	5.06	6.24	36.2
[3]	-2.4	2.13	-1.82	2.66	8.93
[4]	-6.47	-10.6	-10.8	8.7	6.77
[5]	-7.27	-4.1	-4.53	-3.56	13.7
[6]	1.83	1.49	-0.7	17.8	59.3
[7]	-6.25	-5.83	-1.92	0.14	14.4
[8]	-2.06	-5.75	8.65	9.14	39.8
[9]	-24.4	-21.3	-33.1	-9.73	9.74
[10]	-2.78	-9.59	3.13	-6.38	24.6
[11]	-0.96	12.3	5.5	3.58	12.3
[12]	-4.18	4.86	12.4	12.3	11.2
[13]	-4.51	8.63	4.94	7.5	11.8
[14]	-5.07	-0.78	8.43	-1.07	0.11

Conditions	drug sensitivity score
[15]	0
[16]	2.77
[17]	0
[18]	0
[19]	0.07
[20]	5.87
[21]	0.2
[22]	3.21
[23]	0
[24]	0.65
[25]	0
[26]	1.51
[27]	0.05
[28]	0

Cn1cc(-c2ccc3nnc(C(F)(F)c4ccc5ncccc5c4)n3n2)cn1 (max concentration tested 10000 nM)
percent inhibition of viability [%]
Conditions	1 nM	10 nM	100 nM	1000 nM	10000 nM
[1]	2.09	-3.72	2.32	3.57	16.4
[2]	-6.47	1.35	-5.46	-8.39	-0.31
[3]	2.83	3.66	7.99	14.2	18.1
[4]	3.43	0.25	2.09	1.51	5.42
[5]	0.7	1.87	-1.15	9.39	7.11
[6]	3.19	2.36	1.58	20	16.7
[7]	-0.7	-2.18	-0.71	3.19	6.06
[8]	15.6	0.97	2.69	5.68	32.8
[9]	-5.06	-3.02	-0.1	27.9	44
[10]	2.08	2.01	-0.66	8.07	15.4
[11]	-10.8	-1.09	-9.66	-1.21	4
[12]	-30.2	-15.2	-20.6	-28.2	-14.9
[13]	-8.18	-11	-4.17	-3.65	7.05
[14]	-11.6	-17.9	-6.24	0.44	0.55

Conditions	drug sensitivity score
[15]	0.71
[16]	0
[17]	1.63
[18]	0
[19]	0
[20]	2.9
[21]	0
[22]	2.43
[23]	5.6
[24]	0.87
[25]	0
[26]	0
[27]	0
[28]	0

Source: the supplement of paper PMC5908809
